Measured values: patent US20190010158A1, “ANTITUMOR EFFECT POTENTIATOR COMPRISING PYRROLOPYRIMIDINE COMPOUND” (TAIHO PHARMACEUTICAL CO., LTD, priority 2015, published 2019)
Values joined by “and” are separate entries in the source; they are usually repeats but may differ in a detail not shown here. Equal entries are not always repeated. Where two headings read alike, the source gives them in different places. One block for each molecule: values may come before it.

Legend:
[1] = test system: tumor cell lines shown in Table 42; assay: Example 11: combined use with antimetabolite, cell growth inhibition test (IC50 ratio, CI); type: cell-based
[2] = target: T1, NAE (heterodimer of APPBP1 and UBA3) (Homo sapiens, UniProt Q8TBC4); assay: Nedd8 conjugation inhibitory activity (AlphaScreen); type: biochemical; conditions: purified NAE, GST-UBC12, ATP, Biotin-Nedd8, reaction 90 minutes
T1 construct: amino acids 1 to 463 of human UBA3 protein; made in house; host or cells: Sf9 insect cells (baculovirus co-infection) for NAE; E. coli BL21 (DE3) for GST-UBC12
T1 sequence (Q8TBC4 1-463): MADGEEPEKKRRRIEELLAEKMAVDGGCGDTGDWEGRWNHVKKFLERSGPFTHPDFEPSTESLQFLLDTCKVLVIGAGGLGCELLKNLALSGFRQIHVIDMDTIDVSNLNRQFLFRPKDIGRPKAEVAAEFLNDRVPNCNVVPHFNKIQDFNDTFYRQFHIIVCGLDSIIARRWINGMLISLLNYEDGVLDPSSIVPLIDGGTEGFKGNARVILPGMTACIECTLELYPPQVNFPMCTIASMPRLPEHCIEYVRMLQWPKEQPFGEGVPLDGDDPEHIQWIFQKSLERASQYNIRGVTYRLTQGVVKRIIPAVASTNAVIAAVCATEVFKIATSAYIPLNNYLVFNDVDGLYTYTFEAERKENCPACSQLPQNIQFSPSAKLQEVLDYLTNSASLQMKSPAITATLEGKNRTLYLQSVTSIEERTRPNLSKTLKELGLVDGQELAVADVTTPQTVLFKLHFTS
T1 sequence (Q13564 1-534 partner): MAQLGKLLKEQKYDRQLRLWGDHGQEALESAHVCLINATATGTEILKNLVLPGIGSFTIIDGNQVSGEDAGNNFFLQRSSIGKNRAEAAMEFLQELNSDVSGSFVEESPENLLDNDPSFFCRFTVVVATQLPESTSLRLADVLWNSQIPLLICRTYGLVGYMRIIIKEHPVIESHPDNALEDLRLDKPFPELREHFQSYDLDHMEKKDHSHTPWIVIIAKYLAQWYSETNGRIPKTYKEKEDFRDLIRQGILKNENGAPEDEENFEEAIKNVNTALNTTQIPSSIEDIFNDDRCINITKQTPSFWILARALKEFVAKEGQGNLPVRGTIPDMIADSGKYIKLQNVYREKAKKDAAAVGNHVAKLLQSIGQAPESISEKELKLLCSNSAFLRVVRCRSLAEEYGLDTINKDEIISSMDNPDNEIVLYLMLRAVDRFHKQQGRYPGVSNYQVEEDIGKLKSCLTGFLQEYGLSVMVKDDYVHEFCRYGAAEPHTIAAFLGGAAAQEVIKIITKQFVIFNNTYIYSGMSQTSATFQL

[3] = test system: human acute T lymphoblastic leukemia CCRF-CEM cell lines; assay: Cell growth inhibition 1 (CellTiter-Glo); type: cell-based; conditions: culture with test compound 72 hours
[4] = A431, IC50 of Reference Example Compound 55 : IC50 of other compound = 1:value
[5] = A431, combined use with Reference Example Compound 55

SMILES: O=c1[nH]cc(F)c(=O)[nH]1 [Fluorouracil, fluorouracil]
IC50 Ratio [1, 4]: 0.8 | CI ([1]; A431, Reference Example Compound 55:other compound 1:0.56, at ED50): 0.44 | CI ([1]; A431, Reference Example Compound 55:other compound 1:1.67, at ED50): 0.20 | Comprehensive Evaluation [1, 5]: Synergism (0.3-0.7)

SMILES: Nc1ccn([C@@H]2O[C@H](CO)[C@@H](O)C2(F)F)c(=O)n1 [Gemcitabine, gemcitabine]
IC50 Ratio [1, 4]: 0.01 | CI ([1]; A431, Reference Example Compound 55:other compound 1:0.007, at ED50): 0.70 | CI ([1]; A431, Reference Example Compound 55:other compound 1:0.02, at ED50): 0.49 | Comprehensive Evaluation [1, 5]: Synergism (0.3-0.7)

SMILES: Nc1nc2[nH]cc(CCc3ccc(C(=O)N[C@@H](CCC(=O)O)C(=O)O)cc3)c2c(=O)[nH]1 [Pemetrexed, pemetrexed]
CI [1]: 0.73 and 0.55 | Comprehensive Evaluation [1]: Moderate | IC50 Ratio [1]: 34

SMILES: Nc1ncnc2c1c(C#Cc1c(F)cc(N3CCOCC3)cc1F)cn2[C@@H]1O[C@H](CNS(N)(=O)=O)[C@@H](O)[C@H]1O [Reference Example 23, 4-[4-[2-[4-Amino-7-[(2R,3R,4S,5R)-3,4-dihydroxy-5-[(sulfamoylamino)methyl]tetrahydrofuran-2-yl]pyrrolo[2,3-d]pyrimidin-5-yl]ethynyl]-3,5-difluoro-phenyl]morpholine]
IC50 [2]: ≤ 0.003 µM

SMILES: Nc1ncnc2c1c(C#Cc1c(F)cc(N3CCC[C@@H](O)C3)cc1F)cn2[C@@H]1O[C@H](CNS(N)(=O)=O)[C@@H](O)[C@H]1O [Reference Example 40, 4-Amino-5-[2-[2,6-difluoro-4-[(3R)-3-hydroxy-1-piperidyl]phenyl]ethynyl]-7-[(2R,3R,4S,5R)-3,4-dihydroxy-5-[(sulfamoylamino)methyl]tetrahydrofuran-2-yl]pyrrolo[2,3-d]pyrimidine]
IC50 [2]: ≤ 0.003 µM | IC50 [3]: 19 nM

SMILES: CCOc1cccc(F)c1C#Cc1cn([C@@H]2O[C@H](CNS(N)(=O)=O)[C@@H](O)[C@H]2O)c2ncnc(N)c12 [Reference Example 55, 4-Amino-7-[(2R,3R,4S,5R)-3,4-dihydroxy-5-[(sulfamoylamino)methyl]tetrahydrofuran-2-yl]-5-[2-(2-ethoxy-6-fluoro-phenyl)ethynyl]pyrrolo[2,3-d]pyrimidine]
IC50 [2]: ≤ 0.003 µM

SMILES: COC(=O)c1cc(F)c(C#Cc2cn([C@@H]3O[C@H](CNS(N)(=O)=O)[C@@H](O)[C@H]3O)c3ncnc(N)c23)c(F)c1 [Reference Example 58, Methyl 4-[2-[4-amino-7-[(2R,3R,4S,5R)-3,4-dihydroxy-5-[(sulfamoylamino)methyl]tetrahydrofuran-2-yl]pyrrolo[2,3-d]pyrimidin-5-yl]ethynyl]-3,5-difluoro-benzoate]
IC50 [2]: ≤ 0.003 µM

SMILES: Nc1ncnc2c1c(C#Cc1c(F)cc(N3CCS(=O)(=O)CC3)cc1F)cn2[C@@H]1O[C@H](CNS(N)(=O)=O)[C@@H](O)[C@H]1O [Reference Example 74, 4-[4-[2-[4-amino-7-[(2R,3R,4S,5R)-3,4-dihydroxy-5-[(sulfamoylamino)methyl]tetrahydrofuran-2-yl]pyrrolo[2,3-d]pyrimidin-5-yl]ethynyl]-3,5-difluoro-phenyl]-1,1-dioxo-1,4-thiazinane]
IC50 [2]: ≤ 0.003 µM | IC50 [3]: 160 nM

SMILES: COc1ccc(C#Cc2cn([C@@H]3C[C@H](CNS(N)(=O)=O)[C@@H](O)[C@H]3O)c3ncnc(N)c23)c(S(C)(=O)=O)c1 [Reference Example 113, 4-Amino-7-[(1R,2S,3R,4R)-2,3-dihydroxy-4-[(sulfamoylamino)methyl]cyclopentyl]-5-[2-(4-methoxy-2-methylsulfonyl-phenyl)ethynyl]pyrrolo[2,3-d]pyrimidine]
IC50 [2]: ≤ 0.003 µM

SMILES: CCS(=O)(=O)c1cc(N2CCCC2)cc(F)c1C#Cc1cn([C@@H]2C[C@H](CNS(N)(=O)=O)[C@@H](O)[C@H]2O)c2ncnc(N)c12 [Reference Example 114, 4-Amino-7-[(1R,2S,3R,4R)-2,3-dihydroxy-4-[(sulfamoylamino)methyl]cyclopentyl]-5-[2-(2-ethylsulfonyl-6-fluoro-4-pyrrolidin-1-yl-phenyl)ethynyl]pyrrolo[2,3-d]pyrimidine]
IC50 [2]: ≤ 0.003 µM

SMILES: CCOc1cccc(F)c1C#Cc1cn([C@@H]2C=C(CNS(N)(=O)=O)[C@@H](O)[C@H]2O)c2ncnc(N)c12 [Reference Example 129, 4-Amino-7-[(1R,4R,5S)-4,5-dihydroxy-3-[(sulfamoylamino)methyl]cyclopent-2-en-1-yl]-5-[2-(2-ethoxy-6-fluoro-phenyl)ethynyl]pyrrolo[2,3-d]pyrimidine]
IC50 [2]: ≤ 0.003 µM | IC50 [3]: 2.1 nM

SMILES: Nc1ncnc2c1c(C#Cc1ccccc1)cn2[C@@H]1O[C@H](COS(N)(=O)=O)[C@@H](O)[C@H]1O [Reference Example 131, [(2R,3S,4R,5R)-5-[4-amino-5-(2-phenylethynyl)pyrrolo[2,3-d]pyrimidin-7-yl]-3,4-dihydroxy-tetrahydrofuran-2-yl]methyl sulfamate]
IC50 [2]: ≤ 0.003 µM

Further lines, with some results ahead:

IC50 [2]: ≤ 0.003 µM
SMILES: CS(=O)(=O)c1ccccc1C#Cc1cn([C@@H]2O[C@H](CNS(N)(=O)=O)[C@@H](O)[C@H]2O)c2ncnc(N)c12 [Reference Example 22, 4-Amino-7-[(2R,3R,4S,5R)-3,4-dihydroxy-5-[(sulfamoylamino)methyl]tetrahydrofuran-2-yl]-5-[2-(2-methylsulfonylphenyl)ethynyl]pyrrolo[2,3-d]pyrimidine]

IC50 [2]: ≤ 0.003 µM
SMILES: Nc1cc(F)c(C#Cc2cn([C@@H]3O[C@H](CNS(N)(=O)=O)[C@@H](O)[C@H]3O)c3ncnc(N)c23)c(F)c1 [Reference Example 24, 4-Amino-5-[2-(4-amino-2,6-difluoro-phenyl)ethynyl]-7-[(2R,3R,4S,5R)-3,4-dihydroxy-5-[(sulfamoylamino)methyl]tetrahydrofuran-2-yl]pyrrolo[2,3-d]pyrimidine]

IC50 [2]: ≤ 0.003 µM | IC50 [3]: 37 nM
SMILES: Nc1ncnc2c1c(C#Cc1c(F)cc(N3CCCC3=O)cc1F)cn2[C@@H]1O[C@H](CNS(N)(=O)=O)[C@@H](O)[C@H]1O [Reference Example 33, 4-Amino-5-[2-[2,6-difluoro-4-(2-oxopyrrolidin-1-yl)phenyl]ethynyl]-7-[(2R,3R,4S,5R)-3,4-dihydroxy-5-[(sulfamoylamino)methyl]tetrahydrofuran-2-yl]pyrrolo[2,3-d]pyrimidine]

IC50 [2]: ≤ 0.003 µM | IC50 [3]: 7.8 nM
SMILES: Nc1ncnc2c1c(C#Cc1c(F)cc(N3CC(O)C3)cc1F)cn2[C@@H]1O[C@H](CNS(N)(=O)=O)[C@@H](O)[C@H]1O [Reference Example 39, 4-Amino-5-[2-[2,6-difluoro-4-(3-hydroxyazetidin-1-yl)phenyl]ethynyl]-7-[(2R,3R,4S,5R)-3,4-dihydroxy-5-[(sulfamoylamino)methyl]tetrahydrofuran-2-yl]pyrrolo[2,3-d]pyrimidine]

IC50 [2]: ≤ 0.003 µM
SMILES: Nc1ncnc2c1c(C#Cc1c(F)cc(N3CCC(C(=O)O)C3)cc1F)cn2[C@@H]1O[C@H](CNS(N)(=O)=O)[C@@H](O)[C@H]1O (stereo partly drawn) [Reference Example 41, 1-[4-[2-[4-amino-7-[(2R,3R,4S,5R)-3,4-dihydroxy-5-[(sulfamoylamino)methyl]tetrahydrofuran-2-yl]pyrrolo[2,3-d]pyrimidin-5-yl]ethynyl]-3,5-difluoro-phenyl]pyrrolidine-3-carboxylic Acid]

IC50 [2]: ≤ 0.003 µM
SMILES: CCS(=O)(=O)c1cc(N2CC[C@@H](F)C2)cc(F)c1C#Cc1cn([C@@H]2O[C@H](CNS(N)(=O)=O)[C@@H](O)[C@H]2O)c2ncnc(N)c12 [Reference Example 75, 4-Amino-7-[(2R,3R,4S,5R)-3,4-dihydroxy-5-[(sulfamoylamino)methyl]tetrahydrofuran-2-yl]-5-[2-[2-ethylsulfonyl-6-fluoro-4-[(3R)-3-fluoropyrrolidin-1-yl]phenyl]ethynyl]pyrrolo[2,3-d]pyrimidine]

IC50 Ratio [1, 4]: 0.5
SMILES: O=c1[nH]c(=O)n([C@H]2C[C@H](O)[C@@H](CO)O2)cc1C(F)(F)F [Trifluridine, trifluridine]
CI ([1]; A431, Reference Example Compound 55:other compound 1:0.33, at ED50): 1.06 | CI ([1]; A431, Reference Example Compound 55:other compound 1:1, at ED50): 0.74 | Comprehensive Evaluation [1, 5]: Additive (0.9-1.10)
